{
  "source": "the NIST ThermoML archive (doi:10.1021/je100081v)",
  "conditions": "Liquid",
  "note": "± gives the expanded uncertainty stated by the source.",
  "data": [
    {"compound": "O=CN1CCOCC1", "note": "[N-formylmorpholine]", "values": [
      {"measurement": "vapor or sublimation pressure", "setting": "509.95 K", "result": "101.32 ± 0.2", "unit": "kPa"}
    ]},
    {"compound": "OCCO", "note": "[1,2-ethanediol]", "values": [
      {"measurement": "vapor or sublimation pressure", "setting": "469.15 K", "result": "101.32 ± 0.19", "unit": "kPa"}
    ]}
  ]
}
